Data published in patent publication US20260199231A1, “FLUTICASONE AND VILANTEROL FORMULATION AND INHALER” (KINDEVA DRUG DELIVERY L.P., priority 2018, published 2026).

Key:
[1] = Delivered dose study (start of unit life, unit spray collection apparatus, HPLC assay); format: physicochemical; settings: Example 1 MDI: 0.1744% fluticasone furoate, 0.0698% vilanterol trifenatate, 99.7558% HFA-152a; coated 63 microliter valve; 28.3 L/min
Experimental: The start of unit life delivered dose was determined using standard unit spray collection apparatus (USCA) fitted with a filter. For each determination, an MDI was attached to the USCA using a coupler and actuated a single time. Immediately prior to attachment, the MDI was vigorously shaken. Prior to collection of the test sample, the MDI was primed by actuating four times. Prior to each priming shot the MDI was vigorously shaken. The flow rate through the equipment was regulated to 28.3 L/min+/−0.5 L/min. The test sample deposited in the USCA was collected by rinsing with a known volume of collection solvent. The recovered samples were then analyzed for sample content using an HPLC assay with reference to a known standard. An HPLC instrument with a UV detector (220 nm at 0 minutes, 240 nm at 5 minutes) and a symmetry shield RP18, 150 mm×4.6 mm (3.5 μm) column (temperature 25° C.) was used. The mobile phase was 10 mM SDS (sodium dodecyl sulphate), 60:40 (v/v) acetetonitrile:50 mM NH4OAc (ammonium acetate), pH 5.50. The injection volume was 50 μl and the flow rate was 1.0 mL/min.

[2] = Next Generation Impactor (NGI) studies, aerodynamic particle size distribution emitted from MDI; format: physicochemical; settings: HFA-152a; for FPM (fine particle mass, particle size less than 5 micrometers, per actuation) / ISM (impactor sized mass, Cups 2-7, MOC and filter, per actuation) / MMAD (mass median aerodynamic diameter) / Throat hold up (throat assembly content divided by total ex-actuator content): Example 1 MDI: 0.1744% FF, 0.0698% vilanterol trifenatate, mean of three MDIs; for FPM (fine particle mass, particle size less than 5 micrometers, per actuation) / ISM (impactor sized mass, Cups 2-7, MOC and filter, per actuation) / MMAD (mass median aerodynamic diameter): 30 L/minute; for Throat hold up (throat assembly content divided by total ex-actuator content): Emmace anatomical throat
Experimental: The aerodynamic particle size distribution emitted from each MDI was evaluated using a Next Generation Impactor Instrument (MSP Corporation, Shoreview, MN). For each test, an MDI was attached to the throat component (Emmace anatomical throat, Emmace Consulting, Lund, Sweden) of the NGI instrument and actuated 6 times into the instrument. Prior to each actuation the MDI was vigorously shaken. Immediately prior to attachment, the MDI was primed by actuating 4 times. Prior to each priming shot the MDI was vigorously shaken. The flow rate through the instrument during testing was regulated at 30 L/minute. The test sample (fluticasone furoate and vilanterol trifenatate) deposited on the valve stem, actuator, throat assembly (Emmace anatomical throat), individual uncoated collection cups 1-7, micro-orifice collector (MOC), and final filter component was collected by rinsing each individual component with a known volume of collection solvent. The recovered samples were then analyzed for sample content using an HPLC assay with reference to a known standard. An HPLC instrument with a UV detector (220 nm at 0 minutes, 240 nm at 5 minutes) and a symmetry shield RP-18, 4.6-150 mm column (25° C. column temp) was used. The mobile phase was 10 mM SDS, 60:40 (v/v) acetonitrile:50 mM NH4OAc, pH 5.5). The injection volume was 50 microliters and the flow rate was 1.0 mL/min.
Throat hold up was determined as the ratio of the sample content from the throat assembly divided by the total ex-actuator content.
Fine particle mass (FPM) was calculated using CITDAS (Copley Inhaler Testing Data Analysis Software, from Copley Scientific, Nottingham, UK) as the sum of sample content with a particle size less than 5 micrometers (um), reported as micrograms per actuation (mcg/act).
Median mass aerodynamic diameter (MMAD) was calculated using CITDAS (Copley Inhaler Testing Data Analysis Software).
Impactor sized mass (ISM) was determined as the sum of the sample content determined for Cups 2-7, the MOC and the filter, reported as micrograms per actuation (mcg/act).

[3] = Example 2 MDI: 0.8791 wt. % fluticasone furoate, 0.1758 wt. % vilanterol trifenatate, coated 25 microliter valve
[4] = Example 3 MDI: 0.4396 wt. % fluticasone furoate, 0.0879 wt. % vilanterol trifenatate, 50 microliter valve
[5] = Example 4 MDI: 0.3489 wt. % fluticasone furoate, 0.0698 wt. % vilanterol trifenatate, 63 microliter valve
[6] = Example 5 MDI: 0.2198 wt. % fluticasone furoate, 0.0440 wt. % vilanterol trifenatate, uncoated 100 microliter valve
[7] = Example 6 MDI: 0.4396 wt. % fluticasone furoate, 0.1758 wt. % vilanterol trifenatate, coated 25 microliter valve
[8] = Example 7 MDI: 0.2198 wt. % fluticasone furoate, 0.0879 wt. % vilanterol trifenatate, 50 microliter valve
[9] = Example 8 MDI: 0.1744 wt. % fluticasone furoate, 0.0698 wt. % vilanterol trifenatate, 63 microliter valve
[10] = Example 9 MDI: 0.1099 wt. % fluticasone furoate, 0.0440 wt. % vilanterol trifenatate, uncoated 100 microliter valve

Row | Start of life dose content uniformity (delivered dose) [1] [mcg/actuation] | FPM (fine particle mass, particle size less than 5 micrometers, per actuation) ([2]; 63 microliter valve) [µg] | ISM (impactor sized mass, Cups 2-7, MOC and filter, per actuation) ([2]; 63 microliter valve) [µg] | MMAD (mass median aerodynamic diameter) ([2]; 63 microliter valve) [um] | Throat hold up (throat assembly content divided by total ex-actuator content) ([2]; 63 microliter valve) [%] | calculated FPM [2, 3] [micrograms/actuation] | calculated MMAD [2, 3] [micrometers] | calculated FPM [2, 4] [micrograms/actuation] | calculated MMAD [2, 4] [micrometers] | calculated FPM [2, 5] [micrograms/actuation] | calculated MMAD [2, 5] [micrometers] | calculated FPM [2, 6] [micrograms/actuation] | calculated MMAD [2, 6] [micrometers] | calculated FPM [2, 7] [micrograms/actuation] | calculated MMAD [2, 7] [micrometers] | calculated FPM [2, 8] [micrograms/actuation] | calculated MMAD [2, 8] [micrometers] | calculated FPM [2, 9] [micrograms/actuation] | calculated MMAD [2, 9] [micrometers] | calculated FPM [2, 10] [micrograms/actuation] | Compound | other results
1 | 90.9 | 21.6 | 29.7 | 3.3 | 70.8 | 104.9 | 3.5 | 69.3 | 3.4 | 55.9 | 3.3 | 45.2 | 3.3 | 41.0 | 3.1 | 26.3 | 2.9 | 23.8 | 3.0 | 19.3 | C[C@@H]1C[C@H]2[C@@H]3C[C@H](F)C4=CC(=O)C=C[C@]4(C)[C@@]3(F)[C@@H](O)C[C@]2(C)[C@@]1(OC(=O)c1ccco1)C(=O)SCF [FF, fluticasone furoate] | calculated MMAD [2, 10]: 3.2 micrometers
2 | 23.1 | 9.2 | 10.1 | 1.9 | 61.4 | 13.6 | 2.6 | 8.8 | 2.7 | 6.7 | 2.3 | 5.5 | 2.5 | 11.4 | 2.1 | 7.7 | 2.2 | 5.9 | 2.3 | 4.2 | OCc1cc([C@@H](O)CNCCCCCCOCCOCc2c(Cl)cccc2Cl)ccc1O [V, vilanterol] | calculated MMAD [2, 10]: 2.6 micrometers
